Measured values from PubChem BioAssay AID977622 (Broad Institute, 2014).
Inconclusive results are not listed. The source made the active and inactive calls.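 The calls were made as follows: active = Green signal of the normal strain falls at least twice as much as red signal of the resistant mutant, with overall culture growth loss under a set limit; inconclusive = no clear call, values can overlap the other calls; inactive = the rest.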

Columns and labels:
[1] = tested on: E. coli h38 humanized mutant ribosome RFP fluorescence, mixed culture, 24 h; assay: growth inhibition of wild-type GFP E. coli, dose response, h38 mutant RFP, cherry-pick (AID 977622); conditions: measured here: h38 humanized mutant RFP strain
[2] = tested on: E. coli WT ribosome GFP fluorescence, mixed culture, 24 h; assay: as above
[3] = E. coli mixed culture, 24 h, measured here: total growth OD600

In the case of `Cc1ccccc1S(=O)(=O)N1C[C@H]2CON(C)[C@H]2C[C@H]1c1cccc(-c2ccc(C#N)cc2)c1`, the AC50 [1] is reported as > 100 µM.
In the case of `COc1cccc(-c2ccc(NC(=O)C3CCCN(Cc4cnn(C(C)C)c4)C3)cc2)c1` (stereo not drawn), the AC50 [1] is reported as > 100 µM.
`Cc1onc(-c2ccccc2Cl)c1C(=O)N1CCN(Cc2ccc3c(c2)OCO3)CC1` was tested, and the AC50 [2, 3] was > 100 µM and the AC50 [1] was > 100 µM.
For `CN1C(=O)c2cc(NC(=O)c3cccc(F)c3)ccc2OC[C@H]2O[C@@H](CC(=O)NCC3CCCCC3)CC[C@@H]21`, the AC50 [1] was > 100 µM.
Work on `O=S(=O)(NOCc1ccc(Cl)cc1)c1ccc(Cl)cc1` yielded an AC50 [1] of 52 µM.
In the case of `CC(C)=C(c1ccc(Cl)cc1)c1c(N)ncnc1N`, the AC50 [1] is reported as > 100 µM.
In the case of `CC(=O)Nc1cccc(OCc2ccc([N+](=O)[O-])cc2)c1`, the AC50 [1] is reported as > 100 µM.
`C[C@H]1CN([C@@H](C)CO)C(=O)c2c(c3ccccc3n2C)-c2ccccc2CO[C@@H]1CN(C)Cc1ccncc1` was tested, and the AC50 [1] was > 100 µM.
For `O=C(Nc1ccc(C(=O)c2ccccc2)cc1)c1ccccc1`, the AC50 [1] was > 100 µM.
For `Cc1ccccc1CSCC(=O)Nc1ccccc1F`, the AC50 [1] was > 100 µM.
With `CCOc1ccc(C(C)=O)cc1CN1C(=O)NC2(CCCCCCC2)C1=O` the AC50 [1] was > 100 µM.
In the case of `CN(C)CCCN(C(=O)CCOc1ccccc1)c1nc2c(F)cccc2s1`, the AC50 [1] is reported as > 100 µM.
`O=C(COC(=O)C1CC2C=CC1C2)Nc1ccc([N+](=O)[O-])cc1` (stereo not drawn) was tested, and the AC50 [2, 3] was > 100 µM.
In the case of `O=C(C[C@H]1CC[C@@H]2[C@H](COC[C@@H](O)CN2C(=O)Nc2cc(Cl)cc(Cl)c2)O1)N1CCOCC1`, the AC50 [2] is reported as > 100 µM (inactive).
For `O=C(CC(=O)c1cccs1)c1ccncc1`, the AC50 [2] was > 100 µM (inactive) and the AC50 [2, 3] was > 100 µM.
For `COc1cc2c(c(OC)c1OC)C(c1ccc3c(c1)OCO3)CC(=O)O2` (stereo not drawn), the AC50 [2, 3] was > 100 µM.
With `COc1ccc(C#Cc2ccc([C@H]3[C@@H](CO)N4CCCCN(C(=O)Nc5cccc(F)c5)C[C@H]34)cc2)cc1` the AC50 [2, 3] was > 100 µM.
In the case of `COC(=O)c1c(C)oc(C)c1S(=O)(=O)NC(c1ccccc1)c1ccccc1`, the AC50 [2] is reported as > 100 µM (inactive) and the AC50 [2, 3] is reported as 35.7 µM.
With `CSc1c(-c2ccccn2)c(N)nn1C(=O)C1CC1` the AC50 [2] was > 100 µM (inactive).
For `COc1ccc(-c2ccccc2)cc1NC(=O)c1ccncc1`, the AC50 [2] was > 100 µM (inactive).
For `Cc1cc(C)cc(NC(=O)c2cccc(NC(=O)C3C4CC5OC(=O)C3C5C4)c2)c1` (stereo not drawn), the AC50 [2] was > 100 µM (inactive).
For `Fc1ccc(Br)cc1SCCc1ccncc1`, the AC50 [2, 3] was > 100 µM.
In the case of `Cc1ccc(-c2c[n+](CC(=O)OCc3ccccc3)c3n2CCC3)cc1`, the AC50 [2] is reported as > 100 µM (inactive).
`COc1ccc(OCC(=O)N2c3ccccc3CC2C)c([N+](=O)[O-])c1` (stereo not drawn) was tested, and the AC50 [2] was > 100 µM (inactive) and the AC50 [2, 3] was > 100 µM.
For `CS(=O)(=O)N1CC2CCCN2c2ccc(C(F)(F)F)cc21` (stereo not drawn), the AC50 [2, 3] was > 100 µM.
With `O=C(Nc1cccc(Cl)c1)N1C[C@@H]2[C@H](c3ccccc31)[C@H](CO)N2Cc1ccncc1` the AC50 [2, 3] was > 100 µM.
`Cc1cc(SCC(=O)c2cccs2)n2nc(C)c(-c3ccc(Cl)cc3)c2n1` was tested, and the AC50 [1] was > 100 µM.
`CC(=O)Nc1ccc2nc3ccccc3nc2c1` was tested, and the AC50 [2] was > 100 µM (inactive) and the AC50 [2, 3] was > 100 µM.
In the case of `Cc1c(Cc2ccc3c(c2)OCO3)sc(NC(=O)C2CC2)c1C(N)=O`, the AC50 [2] is reported as > 100 µM (inactive) and the AC50 [2, 3] is reported as 34.7 µM.
In the case of `COc1cc(C(=O)NCCc2c[nH]c3ccccc23)ccc1OCc1c(C)noc1C`, the AC50 [2] is reported as > 100 µM (inactive) and the AC50 [2, 3] is reported as > 100 µM.
`CCOC(=O)c1c(CS(=O)(=O)c2ccccc2)n(C)c2cc(Br)c(O)cc12` was tested, and the AC50 [2] was > 100 µM (inactive).
For `O=C1NC(CCc2ccccc2)C(=O)N1Cc1cccc2ccccc12` (stereo not drawn), the AC50 [2] was > 100 µM (inactive) and the AC50 [2, 3] was 51.5 µM.
For `CCOC(=O)c1cccc(OS(=O)(=O)Cc2ccccc2)c1`, the AC50 [2] was > 100 µM (inactive) and the AC50 [2, 3] was > 100 µM.
`O=C(Nc1cccc(Cl)c1)N1C[C@@H]2[C@H](c3ccccc31)[C@@H](CO)N2CC1CCCCC1` was tested, and the AC50 [2] was > 100 µM (inactive) and the AC50 [2, 3] was 50 µM.
For `Cc1ccc2oc(C(=O)N(CCO)Cc3ccccc3)c(C)c2c1`, the AC50 [2] was > 100 µM (inactive) and the AC50 [2, 3] was 37.1 µM.
With `CCC(C)c1ccccc1NC(=O)c1cccc(-n2cnnn2)c1` (stereo not drawn) the AC50 [2, 3] was > 100 µM.
With `O=C(Nc1cccc(S(=O)(=O)N2CCCCC2)c1)c1ccc(Cl)nc1` the AC50 [2] was > 100 µM (inactive).
